Earlier results, collected in US20040019115A1, “Use of milnacipran for the treatment of tension-type headache” (priority 2002, published 2004).

Conditions: patients with chronic tension-type headache, prophylactic treatment

Compound: CN(C)CCC=C1c2ccccc2CCc2ccccc21 [Amitriptyline]
- reduction of headache: 30%
